Results published in patent publication US6784201B2, “Benzothiepines having activity as inhibitors of ileal bile acid transport and taurocholate uptake” (G.D. Searle & Company, priority 1994, dated 2004).

Biological target: T1, human IBAT (Homo sapiens, UniProt Q12908)
T1 construct: expressed in transfected cells; host or cells: Baby hamster kidney (BHK) cells, clone H14
T1 sequence (Q12908 1-348): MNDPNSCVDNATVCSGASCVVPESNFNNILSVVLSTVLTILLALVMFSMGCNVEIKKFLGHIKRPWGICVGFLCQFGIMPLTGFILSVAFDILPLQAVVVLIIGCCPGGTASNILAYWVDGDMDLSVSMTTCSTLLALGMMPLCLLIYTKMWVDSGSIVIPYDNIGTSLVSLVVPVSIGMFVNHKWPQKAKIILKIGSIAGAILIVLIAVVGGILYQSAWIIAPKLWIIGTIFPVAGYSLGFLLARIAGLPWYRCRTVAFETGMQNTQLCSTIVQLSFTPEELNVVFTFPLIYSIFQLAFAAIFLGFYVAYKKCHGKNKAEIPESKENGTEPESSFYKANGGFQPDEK
Assay: In vitro assay of IBAT-mediated uptake of [14C]-taurocholate (TC) in H14 cells
Assay type: cell-based
Settings: read-out: Human TC IC50
Summary of the method: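 BHK cells stably expressing human IBAT (H14) were incubated 2 h at 37° C with compound and 3 μM final [14C]-taurocholate in DMEM (4.5 g/L glucose) plus 0.2% fatty acid-free BSA. After cold PBS washes, cell-associated radioactivity was measured by scintillation counting.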

IC50 | Compound
2 nM | CCCCC1(CCCC)CS(=O)(=O)c2ccc(N(C)C)cc2C(c2cccc(OCCOCCOCC[N+](C)(C)CC(=O)O)c2)C1O (stereo not drawn) [Example 1016]
2 nM | CCCCC1(CCCC)CS(=O)(=O)c2ccc(N(C)C)cc2C(c2cccc(OCCOCCOCC[n+]3ccc(C)c4ccccc43)c2)C1O (stereo not drawn) [Example 1017]
2 nM | CCCCC1(CCCC)CS(=O)(=O)c2ccc(N(C)C)cc2C(c2cccc(OCCOCCOCC[N+](C)(C)CCN(C)C(=O)c3ccccc3)c2)C1O (stereo not drawn) [Example 1018]
2 nM | CCCCC1(CCCC)CS(=O)(=O)c2ccc(N(C)C)cc2C(c2ccc(OCCCCOCCCC[n+]3ccccc3)c(F)c2)C1O (stereo not drawn) [Example 1019]
2 nM | CCCCC1(CCCC)CS(=O)(=O)c2ccc(N(C)C)cc2C(c2ccc(OCc3cccc(C[N+](CC)(CC)CC)n3)c(F)c2)C1O (stereo not drawn) [Example 1020]
2 nM | CCCCC1(CCCC)CS(=O)(=O)c2ccc(N(C)C)cc2C(c2cccc(OCCOCCOCC[N+]3(CCO)CCOCC3)c2)C1O (stereo not drawn) [Example 1021]
2 nM | CCCCC1(CCCC)CS(=O)(=O)c2ccc(N(C)C)cc2C(c2cccc(OCCOCCOCC[N+](CC)(CC)CCO)c2)C1O (stereo not drawn) [Example 1022]
2 nM | C=C(C)C(=O)OCC[N+](CC)(CC)CCOCCOCCOc1cccc(C2c3cc(N(C)C)ccc3S(=O)(=O)CC(CCCC)(CCCC)C2O)c1 (stereo not drawn) [Example 1023]
2 nM | CCCCC1(CCCC)CS(=O)(=O)c2ccc(N(C)C)cc2C(c2cccc(OCCOCCOCC[N+](C)(C)CCN(C)P(C)(=O)c3ccccc3)c2)C1O (stereo not drawn) [Example 1024]
2 nM | CCCCC1(CCCC)CS(=O)(=O)c2ccc(N(C)C)cc2C(c2ccc(OCc3cccc(C[N+](CC)(CC)CC)c3)c(F)c2)C1O (stereo not drawn) [Example 1025]
2 nM | CCCCC1(CCCC)CS(=O)(=O)c2ccc(N(C)C)cc2C(c2cccc(OCCOCCOCC[n+]3ccc(C(C)C)cc3)c2)C1O (stereo not drawn) [Example 1026]
2 nM | CCCCC1(CCCC)CS(=O)(=O)c2ccc(N(C)C)cc2C(c2cccc(OCCOCCOCC[n+]3ccc(C(C)C)cc3)c2)C1O (stereo not drawn) [Example 1027]
2 nM | CCCCC1(CCCC)CS(=O)(=O)c2ccc(N(C)C)cc2C(c2cccc(OCCOCCOCC[n+]3ccc(C(=O)O)cc3)c2)C1O (stereo not drawn) [Example 1028]
2 nM | CCCCC1(CCCC)CS(=O)(=O)c2ccc(N(C)C)cc2C(c2cccc(OCCOCCOCC[N+]3(C)CCC(C(=O)c4ccccc4)CC3)c2)C1O (stereo not drawn) [Example 1029]
2 nM | CCCCC1(CCCC)CS(=O)(=O)c2ccc(N(C)C)cc2C(c2cccc(OCCOCCOCC[n+]3cc4ccccn4c3)c2)C1O (stereo not drawn) [Example 1030]
2 nM | CCCCC1(CCCC)CS(=O)(=O)c2ccc(N(C)C)cc2C(c2ccc(OCCCCOCCCC[N+](CC)(CC)CC)c(F)c2)C1O (stereo not drawn) [Example 1031]
2 nM | CCCCC1(CCCC)CS(=O)(=O)c2ccc(N(C)C)cc2C(c2cccc(OCCCCC[N+](CC)(CC)CC)c2)C1O (stereo not drawn) [Example 1032]
2 nM | CCCCC1(CCCC)CS(=O)(=O)c2ccc(N(C)C)cc2C(c2ccc(OCCOCCOCC[N+]3(C)CCN(C)CC3)c(F)c2)C1O (stereo not drawn) [Example 1033]
2 nM | CCCCC1(CCCC)CS(=O)(=O)c2ccc(N(C)C)cc2C(c2cccc(OCCOCCOCC[n+]3cccc4ccc5ccccc5c43)c2)C1O (stereo not drawn) [Example 1034]
2 nM | CCCCC1(CCCC)CS(=O)(=O)c2ccc(N(C)C)cc2C(c2cccc(OCCOCCOCC[N+](C)(C)CCN(CC)P(C)(=O)c3ccccc3)c2)C1O (stereo not drawn) [Example 1035]
2.2 nM | CCCCC1(CCCC)CS(=O)(=O)c2ccc(N(C)C)cc2C(c2ccc(O)cc2)C1O (stereo not drawn) [Example 1037]
2.5 nM | CCCCC1(CCCC)CS(=O)(=O)c2ccc(N(C)C)cc2C(c2cccc(OCC[N+](C)(C)C)c2)C1O (stereo not drawn) [Example 1038]
2.6 nM | CCCCC1(CCCC)CS(=O)(=O)c2ccc(N(C)C)cc2C(c2ccccc2)C1O (stereo not drawn) [Example 1039]

IC50 | Compound
3 nM | CCCCC1(CCCC)CS(=O)(=O)c2ccc(N(C)C)cc2C(c2ccc(OCCCCOCCCC[N+](CC)(CC)CC)c(F)c2)C1O (stereo not drawn) [Example 1040]
3 nM | CCCCC1(CCCC)CS(=O)(=O)c2ccc(N(C)C)cc2C(c2cccc(OCCOCCOCC[n+]3ccnc4ccccc43)c2)C1O (stereo not drawn) [Example 1041]
3 nM | C=CC(=O)Nc1cccc(C2c3cc(N(C)C)ccc3S(=O)(=O)CC(CCCC)(CCCC)C2O)c1 (stereo not drawn) [Example 1043]
3 nM | CCCCC1(CCCC)CS(=O)(=O)c2ccc(N(C)C)cc2C(c2ccc(OCCOCC[N+](CC)(CC)CC)c(F)c2)C1O (stereo not drawn) [Example 1044]
3 nM | CCCCC1(CCCC)CS(=O)(=O)c2ccc(N(C)C)cc2C(c2ccc(OCCCCCCCC[N+](CC)(CC)CC)c(F)c2)C1O (stereo not drawn) [Example 1045]
3 nM | CCCCC1(CCCC)CS(=O)(=O)c2ccc(N(C)C)cc2C(c2cccc(N)c2)C1O (stereo not drawn) [Example 1046]
3 nM | CCCCC1(CCCC)CS(=O)(=O)c2ccc(N(C)C)cc2C(c2ccc(OCCOCCOCC[N+](CC)(CC)CC)cc2)C1O (stereo not drawn) [Example 1048]
3 nM | CCCCC1(CCCC)CS(=O)(=O)c2ccc(N(C)C)cc2C(c2ccc(OCCOCC[n+]3ccccc3)c(F)c2)C1O (stereo not drawn) [Example 1049]
3 nM | CCCCC1(CCCC)CS(=O)(=O)c2ccc(N(C)C)cc2C(c2cccc(OCCOCCOCC[N+]3(C)CCN(P(C)(=O)c4ccccc4)CC3)c2)C1O (stereo not drawn) [Example 1050]
3 nM | CCCCC1(CCCC)CS(=O)(=O)c2ccc(N(C)C)cc2C(c2ccc(OCc3cc[n+](C)cc3)c(F)c2)C1O (stereo not drawn) [Example 1051]
3 nM | CCCCC1(CCCC)CS(=O)(=O)c2ccc(N(C)C)cc2C(c2cccc(OCCOCCOCC[n+]3cc4ccccc4cc3C)c2)C1O (stereo not drawn) [Example 1052]
3 nM | CCCCC1(CCCC)CS(=O)(=O)c2ccc(N(C)C)cc2C(c2ccc(OCCC[n+]3ccc(N(C)C)cc3)c(F)c2)C1O (stereo not drawn) [Example 1053]
3 nM | CCCCC1(CCCC)CS(=O)(=O)c2ccc(N(C)C)cc2C(c2cccc(OCCOCCOCC[n+]3ccc4ccccc4c3)c2)C1O (stereo not drawn) [Example 1054]
3 nM | CCCCC1(CCCC)CS(=O)(=O)c2ccc(N(C)C)cc2C(c2ccc(OCCOCCOCC[N+]3(C)CCCN(C)CCN(C)CCCN(C)CC3)cc2)C1O (stereo not drawn) [Example 1055]
3 nM | CCCCC1(CCCC)CS(=O)(=O)c2ccc(N(C)C)cc2C(c2cccc(OCCOCCOCC[n+]3ccc4c(c3)CCCCC4)c2)C1O (stereo not drawn) [Example 1056]
3 nM | CCCCC1(CCCC)CS(=O)(=O)c2ccc(N(C)C)cc2C(c2cccc(OCCOCCOCC[n+]3ccncc3)c2)C1O (stereo not drawn) [Example 1057]
3 nM | CCCCC1(CCCC)CS(=O)(=O)c2ccc(N(C)C)cc2C(c2cccc(OCCOCCOCC[N+](CC)(CC)CCN(C)C(=O)c3ccccc3)c2)C1O (stereo not drawn) [Example 1058]
3 nM | CCCCC1(CCCC)CS(=O)(=O)c2ccc(N(C)C)cc2C(c2ccc(OCCOCC[N+]3(CC)CCCCC3)c(F)c2)C1O (stereo not drawn) [Example 1059]
3.6 nM | CCCCC1(CC)CS(=O)(=O)c2ccc(NC)cc2C(c2ccc(OC)c(F)c2)C1O (stereo not drawn) [Example 1060]
4 nM | CCCCC1(CCCC)CS(=O)(=O)c2ccc(NC)cc2C(c2cccc(OCCOCCOCC[n+]3cc4ccccc4cn3)c2)C1O (stereo not drawn) [Example 1061]
4 nM | CCCCC1(CCCC)CS(=O)(=O)c2ccc(NC)cc2C(c2cccc(OCCOCCOCC[N+](C)(C)CCN(C)S(=O)(=O)c3ccccc3)c2)C1O (stereo not drawn) [Example 1062]
4 nM | C=COCC[N+](CC)(CC)CCOCCOCCOc1cccc(C2c3cc(NC)ccc3S(=O)(=O)CC(CCCC)(CCCC)C2O)c1 (stereo not drawn) [Example 1063]
